Measured values as given in patent US20240116910A1, “Heterocycles as WIP1 Inhibitors” (PMV Pharmaceuticals, Inc., priority 2022, published 2024).

Target: recombinant His-tag Wip1(2-420) protein (amino acids #2-420) (Homo sapiens (Human), UniProt O15297)
Assay: Wip1(2-420) phosphatase enzyme FDP assay
Assay type: biochemical
Conditions: fluorescein diphosphate (FDP) substrate, RT 2 hours, fluorescence Ex485/Em535; read-out: WIP1 (Truncated 2-420) FDP Assay: IC50

Sequence of recombinant His-tag Wip1(2-420) protein (amino acids #2-420) (O15297 2-420): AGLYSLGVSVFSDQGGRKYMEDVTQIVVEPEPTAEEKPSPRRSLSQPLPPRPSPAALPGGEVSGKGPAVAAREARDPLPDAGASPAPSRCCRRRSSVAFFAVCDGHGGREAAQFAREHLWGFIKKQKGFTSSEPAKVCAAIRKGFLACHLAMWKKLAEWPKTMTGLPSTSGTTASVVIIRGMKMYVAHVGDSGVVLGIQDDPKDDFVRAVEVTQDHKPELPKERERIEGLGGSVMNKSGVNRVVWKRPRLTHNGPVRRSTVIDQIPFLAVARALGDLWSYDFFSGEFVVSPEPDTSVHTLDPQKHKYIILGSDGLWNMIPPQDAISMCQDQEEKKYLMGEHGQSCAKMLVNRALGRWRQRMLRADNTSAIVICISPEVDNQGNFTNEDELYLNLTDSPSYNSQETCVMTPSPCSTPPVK

Row | IC50 | SMILES
1 | 0.131 µM | Cc1ncc(Cl)cc1N[C@@H](c1ccc(C(=O)N[C@@H](CC2CCCC2)C(=O)NC2CC2)s1)C(F)(F)F [Compound 184, (2S)-2-({5-[(1R)-1-[(5-chloro-2-methylpyridin-3-yl)amino]-2,2,2-trifluoroethyl]thiophen-2-yl}formamido)-3-cyclopentyl-N-cyclopropylpropanamide]
2 | 0.006 µM | Cc1ncc(Cl)cc1N[C@@H](C)c1ccc(C(=O)N[C@@H](CC2CCCC2)C(=O)NC2CCC2C)s1 (stereo partly drawn) [Compound 88, (2S)-2-({5-[(1S)-1-[(5-chloro-2-methylpyridin-3-yl)amino]ethyl]thiophen-2-yl}formamido)-3-cyclopentyl-N-(2-methylcyclobutyl)propanamide]
3 | 0.301 µM | O=C(N[C@@H](CC1CCCC1)C(=O)NC1CC1)c1ccc([C@@H]2CCc3c(Cl)cccc3N2)s1 [Compound 250, (2S)-2-({5-[(2S)-5-chloro-1,2,3,4-tetrahydroquinolin-2-yl]thiophen-2-yl}formamido)-3-cyclopentyl-N-cyclopropylpropanamide]
4 | 0.037 µM | Cc1ncc(Cl)cc1N[C@H](c1ccc(C(=O)N[C@@H](CC2CCCC2)C(=O)NC23CC(C2)C3)s1)C(F)(F)F [Compound 187, (2S)-N-{bicyclo[1.1.1]pentan-1-yl}-2-({5-[(1S)-1-[(5-chloro-2-methylpyridin-3-yl)amino]-2,2,2-trifluoroethyl]thiophen-2-yl}formamido)-3-cyclopentylpropanamide]
5 | 0.008 µM | Cc1ncc(Cl)cc1N[C@@H](C)c1ccc(C(=O)N[C@@H](CC2CCCC2)C(=O)NC(C)C)s1 [Compound 84, (2S)-2-({5-[(1S)-1-[(5-chloro-2-methylpyridin-3-yl)amino]ethyl]thiophen-2-yl}formamido)-3-cyclopentyl-N-(propan-2-yl)propanamide]
6 | 0.02 µM | Cc1ncc(Cl)cc1N[C@@H](Cc1ccccc1)c1ccc(C(=O)N[C@@H](CC2CCCC2)C(=O)NC23CC(C#N)(C2)C3)s1 [Compound 214, (2S)-2-({5-[(1S)-1-[(5-chloro-2-methylpyridin-3-yl)amino]-2-phenylethyl]thiophen-2-yl}formamido)-N-{3-cyanobicyclo[1.1.1]pentan-1-yl}-3-cyclopentylpropanamide]
7 | 0.293 µM | C[C@@H](Nc1cc(Cl)cnc1-c1cccnc1)c1ccc(C(=O)N[C@@H](CC2CCCC2)C(=O)NC2CC2)s1 [Compound 233, (2S)-2-({5-[(1R)-1-({5-chloro-[2,3′-bipyridin]-3-yl}amino)ethyl]thiophen-2-yl}formamido)-3-cyclopentyl-N-cyclopropylpropanamide]
8 | 0.01 µM | COC(=O)c1ncc(Cl)cc1N[C@@H](C)c1ccc(C(=O)N[C@@H](CC2CCCC2)C(=O)NC2CC2)s1 [Compound 102, methyl 5-chloro-3-{[(1S)-1-(5-{[(1S)-2-cyclopentyl-1-(cyclopropylcarbamoyl)ethyl]carbamoyl}thiophen-2-yl)ethyl]amino}pyridine-2-carboxylate]
9 | 0.01 µM | CC(Nc1cc(Cl)cnc1C(N)=O)c1ccc(C(=O)N[C@@H](CC2CCCC2)C(=O)NC23CC(C2)C3)s1 (stereo partly drawn) [Compound 172, 3-{[1-(5-{[(1S)-1-({bicyclo[1.1.1]pentan-1-yl}carbamoyl)-2-cyclopentylethyl]carbamoyl}thiophen-2-yl)ethyl]amino}-5-chloropyridine-2-carboxamide]
10 | 0.08 µM | Cc1ncc(Cl)cc1NC(CC1CCN(C)CC1)c1ccc(C(=O)N[C@@H](CC2CCCC2)C(=O)NC2CC2)s1 (stereo partly drawn) [Compound 131, (2S)-2-[(5-{1-[(5-chloro-2-methylpyridin-3-yl)amino]-2-(1-methylpiperidin-4-yl)ethyl}thiophen-2-yl)formamido]-3-cyclopentyl-N-cyclopropylpropanamide]
11 | 0.068 µM | Cc1ncc(Cl)cc1N[C@H](Cc1ccc(F)cc1)c1ccc(C(=O)N[C@@H](CC2CCCC2)C(=O)NC2CC2)s1 [Compound 222, (2S)-2-({5-[(1R)-1-[(5-chloro-2-methylpyridin-3-yl)amino]-2-(4-fluorophenyl)ethyl]thiophen-2-yl}formamido)-3-cyclopentyl-N-cyclopropylpropanamide]
12 | 0.195 µM | Cc1ncc(Cl)cc1N[C@@H](c1ccc(C(=O)N[C@@H](CC2CCCC2)C(=O)NC23CC(C2)C3)s1)C(F)(F)F [Compound 186, (2S)-N-{bicyclo[1.1.1]pentan-1-yl}-2-({5-[(1R)-1-[(5-chloro-2-methylpyridin-3-yl)amino]-2,2,2-trifluoroethyl]thiophen-2-yl}formamido)-3-cyclopentylpropanamide]
13 | 5.66 µM | Cc1ncc(Cl)cc1N[C@@H](C)c1ccc(C(=O)N[C@H](C(=O)NC2CC2)C(C)(C)C)s1 [Compound 235, (2S)-2-({5-[(1S)-1-[(5-chloro-2-methylpyridin-3-yl)amino]ethyl]thiophen-2-yl}formamido)-N-cyclopropyl-3,3-dimethylbutanamide]
14 | 0.006 µM | Cc1ncc(Cl)cc1N[C@@H](C)c1ccc(C(=O)N[C@@H](CC2CCCC2)C(=O)NC2CC3(CCC3)C2)s1 [Compound 104, (2S)-2-({5-[(1S)-1-[(5-chloro-2-methylpyridin-3-yl)amino]ethyl]thiophen-2-yl}formamido)-3-cyclopentyl-N-{spiro[3.3]heptan-2-yl}propanamide]
15 | 0.5 µM | COc1ncc(Cl)cc1N[C@H](C)c1ccc(C(=O)N[C@@H](CC2CCCC2)C(=O)NC23CC(C2)C3)s1 [Compound 61, (2S)-N-{bicyclo[1.1.1]pentan-1-yl}-2-({5-[(1R)-1-[(5-chloro-2-methoxypyridin-3-yl)amino]ethyl]thiophen-2-yl}formamido)-3-cyclopentylpropanamide]
16 | 0.009 µM | Cc1ncc(Cl)cc1N[C@@H](C)c1ccc(C(=O)N[C@@H](CC2CCCC2)C(=O)NC2CCc3ncccc3C2)s1 (stereo partly drawn) [Compound 169, (2S)-2-({5-[(1S)-1-[(5-chloro-2-methylpyridin-3-yl)amino]ethyl]thiophen-2-yl}formamido)-3-cyclopentyl-N-(5,6,7,8-tetrahydroquinolin-6-yl)propanamide]
17 | 0.005 µM | COC(=O)[C@H]1C[C@H](NC(=O)[C@H](CC2CCCC2)NC(=O)c2ccc([C@H](C)Nc3cc(Cl)cnc3C)s2)C1 [Compound 94, methyl (1r,3r)-3-[(2S)-2-({5-[(1S)-1-[(5-chloro-2-methylpyridin-3-yl)amino]ethyl]thiophen-2-yl}formamido)-3-cyclopentylpropanamido]cyclobutane-1-carboxylate]
18 | 0.006 µM | Cc1ncc(Cl)cc1N[C@@H](C)c1ccc(C(=O)N[C@@H](CC2CCCC2)C(=O)Nc2cnn(C3COC3)c2)s1 [Compound 144, (2S)-2-({5-[(1S)-1-[(5-chloro-2-methylpyridin-3-yl)amino]ethyl]thiophen-2-yl}formamido)-3-cyclopentyl-N-[1-(oxetan-3-yl)-1H-pyrazol-4-yl]propanamide]
19 | > 10 µM | Cc1ncc(Cl)cc1N[C@@H](C)c1ccc(C(=O)NC2Cc3ccccc3NC2=O)s1 (stereo partly drawn) [Compound 253, 5-[(1S)-1-[(5-chloro-2-methylpyridin-3-yl)amino]ethyl]-N-(2-oxo-1,2,3,4-tetrahydroquinolin-3-yl)thiophene-2-carboxamide]
20 | 0.022 µM | Cc1ncc(Cl)cc1NC(Cc1ccncc1)c1ccc(C(=O)N[C@@H](CC2CCCC2)C(=O)NC2CC2)s1 (stereo partly drawn) [Compound 130, (2S)-2-[(5-{1-[(5-chloro-2-methylpyridin-3-yl)amino]-2-(pyridin-4-yl)ethyl}thiophen-2-yl)formamido]-3-cyclopentyl-N-cyclopropylpropanamide]
21 | 0.01 µM | Cc1ncc(Cl)cc1N[C@@H](C)c1ccc(C(=O)N[C@@H](CC2CCCC2)C(=O)N[C@H]2C[C@H](C(=O)O)C2)s1 [Compound 95, (1r,3r)-3-[(2S)-2-({5-[(1S)-1-[(5-chloro-2-methylpyridin-3-yl)amino]ethyl]thiophen-2-yl}formamido)-3-cyclopentylpropanamido]cyclobutane-1-carboxylic acid]
22 | 0.156 µM | C[C@H](c1ccc(C(=O)N[C@@H](CC2CCCC2)C(=O)NC2CC2)s1)N1CCCc2ccc(Cl)cc21 [Compound 249, (2S)-2-({5-[(1R)-1-(7-chloro-1,2,3,4-tetrahydroquinolin-1-yl)ethyl]thiophen-2-yl}formamido)-3-cyclopentyl-N-cyclopropylpropanamide]
23 | 0.007 µM | Cc1ncc(Cl)cc1N[C@@H](Cn1cccn1)c1ccc(C(=O)N[C@@H](CC2CCCC2)C(=O)NC2CC2)s1 [Compound 166, (2S)-2-({5-[(1S)-1-[(5-chloro-2-methylpyridin-3-yl)amino]-2-(1H-pyrazol-1-yl)ethyl]thiophen-2-yl}formamido)-3-cyclopentyl-N-cyclopropylpropanamide]
24 | 0.33 µM | COc1ccccc1-c1ncc(Cl)cc1N[C@H](C)c1ccc(C(=O)N[C@@H](CC2CCCC2)C(=O)NC2CC2)s1 [Compound 241, (2S)-2-({5-[(1R)-1-{[5-chloro-2-(2-methoxyphenyl)pyridin-3-yl]amino}ethyl]thiophen-2-yl}formamido)-3-cyclopentyl-N-cyclopropylpropanamide]
25 | 0.006 µM | Cc1ncc(Cl)cc1N[C@@H](C)c1ccc(C(=O)N[C@@H](CC2CCCC2)C(=O)Nc2cnn(CC(F)(F)F)c2)s1 [Compound 147, (2S)-2-({5-[(1S)-1-[(5-chloro-2-methylpyridin-3-yl)amino]ethyl]thiophen-2-yl}formamido)-3-cyclopentyl-N-[1-(2,2,2-trifluoroethyl)-1H-pyrazol-4-yl]propanamide]
26 | 0.01 µM | Cc1ncc(Cl)cc1NC(C)(C)c1ccc(C(=O)N[C@@H](CC2CCCC2)C(=O)N[C@H]2C[C@H](F)C2)s1 [Compound 275, (2S)-2-[(5-{2-[(5-chloro-2-methylpyridin-3-yl)amino]propan-2-yl}thiophen-2-yl)formamido]-3-cyclopentyl-N-[(1r,3r)-3-fluorocyclobutyl]propanamide]
27 | 0.006 µM | Cc1ncc(Cl)cc1N[C@@H](C)c1ccc(C(=O)N[C@@H](CC2CCCC2)C(=O)Nc2cnn(CCN(C)C)c2)s1 [Compound 151, (2S)-2-({5-[(1S)-1-[(5-chloro-2-methylpyridin-3-yl)amino]ethyl]thiophen-2-yl}formamido)-3-cyclopentyl-N-{1-[2-(dimethylamino)ethyl]-1H-pyrazol-4-yl}propanamide]
